Experimental data reported in patent US10865203B2, “Ligands selective to alpha 6 subunit-containing GABAA receptors and their methods of use” (UWM Research Foundation, Inc., priority 2015, dated 2020).
Converted amounts (≈) assume the structure as drawn.

How the values were obtained:
[1] = test system: binary αxβ3 (x=1, 2, 3, 5) receptors; assay: Electrophysiology in Xenopus oocytes, binary receptors; type: cell-based, rat
Description: Mature female Xenopus laevis (Nasco, Fort Atkinson, Wis., USA) were anaesthetized in a bath of ice-cold 0.17% Tricain (Ethyl-m-aminobenzoat, Sigma-Aldrich, St. Louis, Mo., USA) before decapitation and transfer of the frog's ovary to ND96 medium (96 mM NaCl, 2 mM KCl, 1 mM MgCl2, 5 mM HEPES; pH 7.5). Following incubation in 1 mg/mL collagenase (Sigma-Aldrich, St. Louis, Mo., USA) for 30 min, stage 5 to 6 oocytes were singled out of the ovary and defolliculated using a platinum wire loop. Oocytes were stored and incubated at 18° C. in NDE medium (96 mM NaCl, 2 mM KCl, 1 mM MgCl2, 5 mM HEPES, 1.8 mM CaCl2; pH 7.5) that was supplemented with 100 U per mL-1 penicillin, 100 μg per mL-1 streptomycin and 2.5 mM pyruvate. Oocytes were injected with an aqueous solution of mRNA. A total of 2.5 ng of mRNA per oocyte was injected. Subunit ratio was 1:1:5 for αxβγ2 (x=1, 2, 3, 5) and 3:1:5 for α4/6β3γ2 and αβδ receptors. Injected oocytes were incubated for at least 36 h before electrophysiological recordings. Oocytes were placed on a nylon-grid in a bath of NDE medium. For current measurements, the oocytes were impaled with two microelectrodes (2-3MΩ), which were filled with 2 M KCl. The oocytes were constantly washed by a flow of 6 mL per min-1 NDE that could be switched to NDE containing GABA and/or drugs. Drugs were diluted into NDE from DMSO solutions resulting in a final concentration of 0.1% DMSO. Maximum currents measured in mRNA injected oocytes were in the microampere range for all receptor subtypes. […] Data were digitized using a Digidata 1322A or 1550 data acquisition system (Axon Instruments, Union City, Calif., USA), recorded using Clampex 10.5 software (Molecular Devices, Sunnyvale, Calif., USA), and analyzed using Clampfit 10.5 and GraphPad Prism 6.0 (La Jolla, Calif., USA) software. […]
For selected test compounds full dose response curves were recorded in α1-6β3γ2 receptors. […]

HEPG2 cell line = assay: Cytotoxicity study, CellTiter-Glo cell viability; type: cell-based, Human; conditions: HEPG2, 48 hours incubation
Description: Reagents and Instrumentation: Human liver hepatocellular carcinoma (HEPG2) cell line was purchased (ATCC) and cultured in 75 cm2 flasks (CellStar). Cells were grown in DMEM/High Glucose (Hyclone, #SH3024301) media to which non-essential amino acids (Hyclone, #SH30238.01), 10 mM HEPES (Hyclone, #SH302237.01), 5×106 units of penicillin and streptomycin (Hyclone, #SV30010), and 10% of heat inactivated fetal bovine serum (Gibco, #10082147) were added. Cells were harvested using 0.05% Trypsin (Hyclone, #SH3023601), which disrupts the cell monolayer and proteolytically cleaves the bonds between the cells and flask. The cell viability assay was evaluated using CellTiter-Glo™ Luminescent Cell Viability Assay Kit (Promega, Madison, Wis.) which contains luciferase and all its substrate except ATP. The controls for the cytotoxicity assay used were (E)-10-(bromotriphenylphosphoranyl)decyl 4-(4-(tert-butyl)phenyl)-4-oxobut-2-enoate (400 μM in DMSO, positive control) and DMSO (negative control). Cell culture was performed in a Baker Company Class II Biological Safety Cabinet. All luminescence readings were performed on a Tecan Infinite M1000 plate reader. Small volume transfers were performed on the Tecan Freedom EVO liquid handling system with a 100 nL pin tool transfer (V&P Scientific). Serial dilutions were done in 96-well polypropylene plates (Corning, #3365) and assays were conducted in 384-well white optical bottom plates.
Luminescence-Based VDR-Mediated Transcription Assay Protocol: After 48 hours of incubation at 37 °C with 5% CO2, the cells were harvested with 4 mL of 0.05% Trypsin, added to 10 mL of the assay buffer, DMEM/High Modified buffer without phenol red, and spun down for 3 minutes at 1000 rpm. The media was removed and cells were resuspended in the DMEM assay media. To each well, 40 μL of cells were added to yield a final concentration of 15,000 cells per well. The plates were then spun down for 2 minutes at 1000 rpm. After 2 hours, plated cells were treated with 100 nL×4 of small molecules and controls which were added using the pin tool. After 48 hours of incubation at 37 °C with 5% CO2, 20 μL of Cell Titer-Glo™ Luminescence Assay Kit (cytotoxicity assay) were added and luminescence was read. Controls were measured within each plate to determine the z′ factor (Equation 1) and to enable data normalization. Three independent experiments were performed in quadruplicate and data was analyzed using nonlinear regression with variable slope (GraphPrism, Equation 2). The luminescence intensity of control (untreated) cells was taken as 100% viability, and the relative cell viability compared to control was calculated. Data are presented as the means±SEM of a series of three experiments.

[2] = Solubility of compounds in DI water; type: physicochemical; conditions: thermodynamic from solid; 2 mg in 2 mL DI water, sonicated at 60° C. for 2 hours, cooled to room temperature, filtered
Description: The solubility of the compounds was examined by sonicating 2 mg of each respective compound in 2 mL of DI water at 60° C. for 2 hours. Solutions were cooled to room temperature and then filtered using a syringe filter. The resultant solutions were injected into a mass spectrometer using a SIM method, calibrated to the respective retention times and mass units of each compound. Calibration curves using standard solutions (5 data points) of each compound dissolved in methanol were used to calculate the unknown aqueous concentrations of each compound.

SMILES	efficacy in binary αxβ3 receptors [1]	toxicity at 400 μM (HEPG2 cell line)	solubility at 2 h [2]
COc1ccc(-n2nc3c4ccc(Br)cc4[nH]cc-3c2=O)cc1 [LAU 463, 7-Bromo-2-(4-methoxyphenyl)-2,5-dihydro-3H-pyrazolo[4,3-c]quinolin-3-one]	low efficacy		
[2H]C([2H])([2H])Oc1ccc(-n2nc3c4ccc(OC)cc4[nH]cc-3c2=O)cc1 [DK-I-56-1, 7-Methoxy-2-(4-methoxy-d3-phenyl)-2,5-dihydro-3H-pyrazolo[4,3-c]quinolin-3-one]		non-toxic	11.4 µg/mL (≈ 35.1 µM)
[2H]C([2H])([2H])Oc1ccc2c3nn(-c4ccc(OC)nc4)c(=O)c-3c[nH]c2c1 [DK-I-86-1, 7-Methoxy-d3-2-(6-methoxypyridin-3-yl)-2,5-dihydro-3H-pyrazolo[4,3-c]quinolin-3-one]		non-toxic	211 µg/mL (≈ 649 µM)
COc1ccc(-n2nc3c4ccc(OC)cc4[nH]cc-3c2=O)cc1 [Compound 6, 7-Methoxy-2-(4-methoxyphenyl)-2,5-dihydro-3H-pyrazolo[4,3-c]quinolin-3-one]	low efficacy		
COc1cccc(-n2nc3c4cc(Cl)ccc4[nH]cc-3c2=O)c1 [LAU 159, 8-Chloro-2-(3-methoxyphenyl)-2,5-dihydro-3H-pyrazolo[4,3-c]quinolin-3-one]	low efficacy		
